PubChem BioAssay (NCI)
≈ marks a conversion by molar mass, not a printed value.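 These data come from cells grown in 96-well plates and exposed to compound for 48 hours at five concentrations. Here, GI50 denotes the concentration required for 50% inhibition of growth. TGI denotes the concentration required for complete inhibition of growth.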 Where a SMILES comes first, the peptide text is derived from it. The star is where a group is joined. Boc = CC(C)(C)OC(=O)*; OBn = c1ccc(CO*)cc1

Tests used:
Assay in all cases: growth of human tumour cells (NCI), 48 h
CCRF-CEM leukemia = system: CCRF-CEM leukemia
OVCAR-8 ovarian = system: OVCAR-8 ovarian
SW-620 colon = system: SW-620 colon
NCI-H460 lung = system: NCI-H460 lung
UACC-62 melanoma = system: UACC-62 melanoma
SNB-75 CNS = system: SNB-75 CNS
MDA-MB-435 = system: MDA-MB-435
DU-145 prostate = system: DU-145 prostate
NCI-H226 lung = system: NCI-H226 lung
MALME-3M melanoma = system: MALME-3M melanoma

## O=c1[nH]c(N/N=C\C(O)C(O)C(O)CO)nc2ccccc12 (stereo not given)
CCRF-CEM leukemia
  TGI: > 100 µM
OVCAR-8 ovarian
  TGI: > 100 µM
SW-620 colon
  TGI: > 100 µM
NCI-H460 lung
  TGI: > 100 µM
UACC-62 melanoma
  TGI: > 100 µM
SNB-75 CNS
  TGI: > 100 µM
MDA-MB-435
  TGI: > 100 µM
DU-145 prostate
  TGI: > 100 µM
NCI-H226 lung
  TGI: > 100 µM

## CC(=O)Oc1ccc(C2COc3cc(OC(C)=O)c(OC(C)=O)cc3C2)cc1 (stereo not given)
CCRF-CEM leukemia
  TGI: 58.1 µM
OVCAR-8 ovarian
  TGI: 35.6 µM
SW-620 colon
  TGI: 35.9 µM
NCI-H460 lung
  TGI: 47.3 µM
UACC-62 melanoma
  TGI: 24.2 µM
SNB-75 CNS
  TGI: 32.6 µM
MALME-3M melanoma
  TGI: 31 µM
NCI-H226 lung
  TGI: 54.7 µM

## Cc1cc(=O)oc2cc(O)ccc12
CCRF-CEM leukemia
  TGI: > 100 µM
OVCAR-8 ovarian
  TGI: > 100 µM
SW-620 colon
  TGI: > 100 µM
NCI-H460 lung
  TGI: > 100 µM
UACC-62 melanoma
  TGI: > 100 µM
SNB-75 CNS
  TGI: > 100 µM
MALME-3M melanoma
  TGI: > 100 µM
MDA-MB-435
  TGI: > 100 µM
DU-145 prostate
  TGI: > 100 µM
NCI-H226 lung
  TGI: > 100 µM

## C[C@]12CC[C@@H]3c4ccc(OC(=O)c5ccccc5)cc4CC[C@H]3[C@@H]1CC[C@@H]2Oc1c2ccccc2nc2ccccc12
CCRF-CEM leukemia
  TGI: 21.2 µM
OVCAR-8 ovarian
  TGI: 45 µM
SW-620 colon
  TGI: > 50 µM
NCI-H460 lung
  TGI: 17.1 µM
UACC-62 melanoma
  TGI: > 50 µM
SNB-75 CNS
  TGI: 18.2 µM
MALME-3M melanoma
  TGI: 21.6 µM
MDA-MB-435
  TGI: 12.9 µM
DU-145 prostate
  TGI: 20.3 µM
NCI-H226 lung
  TGI: 48 µM

## Cc1c(-c2ccccc2)c(C#N)c2nnc(C(N)=O)c(N)n12
CCRF-CEM leukemia
  TGI: > 100 µM
OVCAR-8 ovarian
  TGI: > 100 µM
SW-620 colon
  TGI: > 100 µM
NCI-H460 lung
  TGI: > 100 µM
UACC-62 melanoma
  TGI: > 100 µM
MALME-3M melanoma
  TGI: > 100 µM
MDA-MB-435
  TGI: > 100 µM
DU-145 prostate
  TGI: > 100 µM

## O=C1C(Br)=C(c2ccccc2)S(=O)c2ccccc21 (stereo not given)
OVCAR-8 ovarian
  TGI: 31.3 µM
SW-620 colon
  TGI: 38.4 µM
NCI-H460 lung
  TGI: 40.6 µM
UACC-62 melanoma
  TGI: 26.6 µM
SNB-75 CNS
  TGI: 31.1 µM
MALME-3M melanoma
  TGI: 22.4 µM
MDA-MB-435
  TGI: 19.5 µM
DU-145 prostate
  TGI: 27.9 µM
NCI-H226 lung
  TGI: 40.7 µM

## OC12CC/C(=N/OCc3ccccc3)CC1c1ccccc12 (stereo not given)
CCRF-CEM leukemia
  TGI: > 100 µM
OVCAR-8 ovarian
  TGI: > 100 µM
NCI-H460 lung
  TGI: > 100 µM
UACC-62 melanoma
  TGI: > 100 µM
SNB-75 CNS
  TGI: > 100 µM
MALME-3M melanoma
  TGI: > 100 µM
NCI-H226 lung
  TGI: > 100 µM

## CC(C)N(C)C(=O)C12C3C4C1C1C2C3C41C#N (stereo not given)
CCRF-CEM leukemia
  TGI: > 100 µM
OVCAR-8 ovarian
  TGI: > 100 µM
SW-620 colon
  TGI: > 100 µM
NCI-H460 lung
  TGI: > 100 µM
UACC-62 melanoma
  TGI: > 100 µM
SNB-75 CNS
  TGI: > 100 µM
MDA-MB-435
  TGI: > 100 µM
DU-145 prostate
  TGI: > 100 µM

## CC(=Nc1ccncc1)C(C)=Nc1ccncc1
CCRF-CEM leukemia
  TGI: 85.5 µM
OVCAR-8 ovarian
  TGI: > 100 µM
SW-620 colon
  TGI: > 100 µM
NCI-H460 lung
  TGI: > 100 µM
SNB-75 CNS
  TGI: > 100 µM
MALME-3M melanoma
  TGI: 37.3 µM
MDA-MB-435
  TGI: 97.7 µM
DU-145 prostate
  TGI: > 100 µM
NCI-H226 lung
  TGI: > 100 µM

## CCc1ccc2c(c1)CC1(C2)Cc2cc3c(cc2C1)C(=O)CC3 (stereo not given)
CCRF-CEM leukemia
  TGI: 8.31 µM
OVCAR-8 ovarian
  TGI: 64.9 µM
UACC-62 melanoma
  TGI: > 100 µM
MALME-3M melanoma
  TGI: 57.1 µM
MDA-MB-435
  TGI: 8.53 µM
NCI-H226 lung
  TGI: 67 µM

## Cc1ccc(SC(=O)N2C(=S)NC(=NC3CCCCC3)C23CCCCC3)cc1
CCRF-CEM leukemia
  TGI: > 100 µM
SW-620 colon
  TGI: > 100 µM
NCI-H460 lung
  TGI: > 100 µM
UACC-62 melanoma
  TGI: > 100 µM
SNB-75 CNS
  TGI: > 100 µM
MALME-3M melanoma
  TGI: > 100 µM
MDA-MB-435
  TGI: > 100 µM
DU-145 prostate
  TGI: > 100 µM

## O=C(NCc1ccc(Cl)cc1)c1cc2sccc2nc1C(F)(F)F
CCRF-CEM leukemia
  TGI: > 100 µM
OVCAR-8 ovarian
  TGI: 72.1 µM
SW-620 colon
  TGI: > 100 µM
UACC-62 melanoma
  TGI: > 100 µM
MALME-3M melanoma
  TGI: > 100 µM
MDA-MB-435
  TGI: > 100 µM
NCI-H226 lung
  TGI: 50 µM

## O=c1[nH]nc(Cc2ccccc2)n1-n1cnnc1
CCRF-CEM leukemia
  TGI: > 100 µM
OVCAR-8 ovarian
  TGI: > 100 µM
SW-620 colon
  TGI: > 100 µM
UACC-62 melanoma
  TGI: > 100 µM
SNB-75 CNS
  TGI: > 100 µM
MDA-MB-435
  TGI: > 100 µM
DU-145 prostate
  TGI: > 100 µM

## COc1cc(/C=C2/N=C(c3ccccc3)N(C3=NNC4(C(=O)N3)c3ccccc3-c3ccccc34)NC2=O)ccc1O
CCRF-CEM leukemia
  GI50: 46.3 µg/mL (≈ 83.2 µM)
  TGI: > 150 µg/mL
OVCAR-8 ovarian
  GI50: 24 µg/mL (≈ 43.2 µM)
  TGI: 45.5 µg/mL
SW-620 colon
  GI50: 31.1 µg/mL (≈ 55.9 µM)
  TGI: 73.6 µg/mL
NCI-H460 lung
  GI50: 28 µg/mL (≈ 50.2 µM)
  TGI: 49.1 µg/mL
UACC-62 melanoma
  GI50: 27.4 µg/mL (≈ 49.2 µM)
  TGI: 48.3 µg/mL
SNB-75 CNS
  GI50: 23.4 µg/mL (≈ 42.1 µM)
  TGI: 45.8 µg/mL
MALME-3M melanoma
  GI50: 26.5 µg/mL (≈ 47.6 µM)
  TGI: 57 µg/mL
MDA-MB-435
  GI50: 26.7 µg/mL (≈ 47.9 µM)
  TGI: 54.4 µg/mL
DU-145 prostate
  GI50: 31.3 µg/mL (≈ 56.3 µM)
  TGI: 63.6 µg/mL

## Nc1cc(N2CCCC2)nc(=O)n1Cc1ccccc1
CCRF-CEM leukemia
  TGI: > 100 µM
OVCAR-8 ovarian
  TGI: > 100 µM
SW-620 colon
  TGI: > 100 µM
NCI-H460 lung
  TGI: > 100 µM
SNB-75 CNS
  TGI: > 100 µM
MALME-3M melanoma
  TGI: > 100 µM
MDA-MB-435
  TGI: > 100 µM
DU-145 prostate
  TGI: > 100 µM
NCI-H226 lung
  TGI: > 100 µM

## Oc1ccc(CCc2cc(O)cc(O)c2)cc1
OVCAR-8 ovarian
  TGI: > 100 µM
SW-620 colon
  TGI: > 100 µM
NCI-H460 lung
  TGI: > 100 µM
UACC-62 melanoma
  TGI: > 100 µM
SNB-75 CNS
  TGI: > 100 µM
MALME-3M melanoma
  TGI: > 100 µM
MDA-MB-435
  TGI: > 100 µM
DU-145 prostate
  TGI: > 100 µM
NCI-H226 lung
  TGI: > 100 µM

## CCOc1cc(C2CC(c3ccc(NS(=O)(=O)c4cc([N+](=O)[O-])ccc4C)cc3)=NN2)ccc1O (stereo not given)
CCRF-CEM leukemia
  TGI: > 100 µM
OVCAR-8 ovarian
  TGI: > 100 µM
SW-620 colon
  TGI: > 100 µM
UACC-62 melanoma
  TGI: 30.3 µM
SNB-75 CNS
  TGI: 84 µM
MALME-3M melanoma
  TGI: 75.3 µM
MDA-MB-435
  TGI: 85.9 µM
DU-145 prostate
  TGI: > 100 µM
NCI-H226 lung
  TGI: > 100 µM

## CC(C)(C)OC(=O)NC(Cc1ccccc1)C(=O)NC(Cc1ccccc1)C(=O)NCC(=O)OCc1ccccc1 (stereo not drawn) (Boc-Phe-Phe-Gly-OBn; configuration not given here)
CCRF-CEM leukemia
  TGI: 43.1 µM
OVCAR-8 ovarian
  TGI: > 100 µM
SW-620 colon
  TGI: 28.4 µM
NCI-H460 lung
  TGI: 49.9 µM
UACC-62 melanoma
  TGI: 38.7 µM
SNB-75 CNS
  TGI: 59 µM
MALME-3M melanoma
  TGI: > 100 µM
MDA-MB-435
  TGI: > 100 µM
DU-145 prostate
  TGI: 33.2 µM

## CC(=O)O[C@H]1C(=O)[C@@]2(C)[C@H]([C@H](OC(=O)c3ccccc3)[C@]3(O)C[C@H](OC(=O)[C@H](O)[C@@H](NC(=O)CC(C)(C)C)c4ccccc4)C(C)=C1C3(C)C)C1(OC(C)=O)CO[C@@H]1C[C@@H]2O (stereo not given in full)
CCRF-CEM leukemia
  TGI: > 10 µM
OVCAR-8 ovarian
  TGI: > 5.8 µM
SW-620 colon
  TGI: > 10 µM
NCI-H460 lung
  TGI: > 10 µM
UACC-62 melanoma
  TGI: > 10 µM
SNB-75 CNS
  TGI: 0.0154 µM
DU-145 prostate
  TGI: 0.0833 µM
NCI-H226 lung
  TGI: > 5.23 µM

## COc1cccc(-c2cc(=O)c3ccc(C)nc3[nH]2)c1
OVCAR-8 ovarian
  TGI: > 100 µM
SW-620 colon
  TGI: > 100 µM
NCI-H460 lung
  TGI: > 100 µM
UACC-62 melanoma
  TGI: > 100 µM
SNB-75 CNS
  TGI: 0.0496 µM
MALME-3M melanoma
  TGI: > 100 µM
MDA-MB-435
  TGI: 0.0335 µM
DU-145 prostate
  TGI: 3.7 µM
NCI-H226 lung
  TGI: 0.291 µM

## c1ccc2c(Cc3nnc4sc(SSc5nn6c(Cc7c[nH]c8ccccc78)nnc6s5)nn34)c[nH]c2c1
CCRF-CEM leukemia
  TGI: > 100 µM
OVCAR-8 ovarian
  TGI: 73.1 µM
SW-620 colon
  TGI: 37.6 µM
NCI-H460 lung
  TGI: 89.3 µM
UACC-62 melanoma
  TGI: 33.7 µM
SNB-75 CNS
  TGI: > 100 µM
MALME-3M melanoma
  TGI: 78.7 µM
MDA-MB-435
  TGI: 47.7 µM
DU-145 prostate
  TGI: 67.4 µM

## COc1cc(C2SCC(=O)N2c2ccc(Oc3ccc(Cl)cc3)c(Cl)c2)cc(OC)c1OC (stereo not given)
OVCAR-8 ovarian
  TGI: 30.7 µM
SW-620 colon
  TGI: 58.3 µM
NCI-H460 lung
  TGI: > 100 µM
UACC-62 melanoma
  TGI: 30.9 µM
SNB-75 CNS
  TGI: 31.3 µM
MALME-3M melanoma
  TGI: 37.5 µM
MDA-MB-435
  TGI: 41.3 µM
DU-145 prostate
  TGI: 27.3 µM
NCI-H226 lung
  TGI: 31.9 µM
